Assay results as given in ChEMBL document CHEMBL1201862, “PubChem BioAssay data set” (2004).
The source made the active and inactive calls. No rule for the calls is given here.

Experiments:
[1] = target: T1, High affinity choline transporter 1 (Homo sapiens, UniProt Q9GZV3); test: human choline transporter blockers, potency – cell-based, 5-point CRC, membrane potential dye, dose response (AID 504840); assay type: functional
T1 sequence (Q9GZV3 whole entry): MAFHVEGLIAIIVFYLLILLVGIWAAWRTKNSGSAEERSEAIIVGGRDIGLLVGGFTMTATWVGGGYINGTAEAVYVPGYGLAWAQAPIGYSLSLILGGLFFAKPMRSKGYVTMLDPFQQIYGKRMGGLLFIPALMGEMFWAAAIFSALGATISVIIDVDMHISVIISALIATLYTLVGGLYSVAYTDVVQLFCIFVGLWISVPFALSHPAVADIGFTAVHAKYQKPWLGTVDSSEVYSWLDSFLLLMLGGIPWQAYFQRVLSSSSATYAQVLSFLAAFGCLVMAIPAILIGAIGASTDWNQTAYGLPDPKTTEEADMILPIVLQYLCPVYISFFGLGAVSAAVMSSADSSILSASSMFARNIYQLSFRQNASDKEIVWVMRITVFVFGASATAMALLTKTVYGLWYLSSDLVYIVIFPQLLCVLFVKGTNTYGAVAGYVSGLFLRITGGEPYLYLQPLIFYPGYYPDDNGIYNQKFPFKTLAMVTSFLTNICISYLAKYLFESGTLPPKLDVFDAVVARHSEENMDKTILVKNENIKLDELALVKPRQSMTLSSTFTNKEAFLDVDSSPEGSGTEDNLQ

[2] = target: T1, High affinity choline transporter 1; test: human choline transporter blockers, potency – cell-based, 10-point CRC, membrane potential dye, dose response (AID 588401); assay type: functional;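 also: membrane potential dye fluorescence of choline-evoked depolarization via CHT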

IC50 [1]: 3.88 µM (active) | IC50 [2]: 7.94 µM (active)
Structure (SMILES): CCc1cccc(C)c1NC(=O)c1ccc(CN2CCc3ccccc3C2)cc1
